Our source for the RP-LC retention time values is the METLIN SMRT retention time set (Domingo-Almenara et al. 2019).

This series can be described thus: gradient 5% acetonitrile 3 min, to 50% in 2 min, to 85% in 15 min, held 3 min, 100 µL/min. The conditions noted are these: column: Zorbax Extend-C18 2.1 x 50 mm; eluents: water / acetonitrile, 0.1% formic acid. Summed up:
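The mobile phases were water and acetonitrile, each with 0.1% formic acid, pumped at 100 μL/min through a Zorbax Extend-C18 column (2.1 × 50 mm, 1.8 μm). Pure standards were injected as mixtures of ~100 molecules and detected by a quadrupole time-of-flight mass spectrometer in positive and negative ionization mode. Retention time came from computationally picked adduct peaks, each inspected by hand.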
The molecule `Cc1noc(C)c1CCNC(=O)c1cc2c(-c3cccs3)nn(-c3ccccc3)c2n1C` returned an RP-LC retention time of 1000 s.

With `Cc1ccc(N2CC(c3nc(-c4ccc5c(c4)OCO5)no3)CC2=O)cc1F` (configuration not stated), the RP-LC retention time is 986 s. `O=C(Nc1cccc(Cl)c1)C1CCCN(C(=O)Cc2cccc3ccccc23)C1` (configuration not stated) yielded an RP-LC retention time of 1070 s.

`CC(=O)Nc1cccc(-c2nc(-c3ccc4c(c3)oc(=O)n4C(C)C)no2)c1C` came in with an RP-LC retention time of 873 s. `Cc1nn(-c2ccc(-c3ccccc3)nn2)c(C)c1S(=O)(=O)N1CCCC1` came in with an RP-LC retention time of 996 s. Molecule `O=C(NC1CCCCC1)C1CCCN(C(=O)c2cccc(Cl)c2)C1` (configuration not stated) displayed an RP-LC retention time of 864 s. Molecule `CCc1ccc(CNC(=O)CN2CCc3ccccc3C2C(=O)N2CCCCC2)cc1` (configuration not stated) had an RP-LC retention time of 965 s.

For the molecule `CCn1nc2ccc(S(=O)(=O)N3CCOCC3)cn2c1=O`, the RP-LC retention time was 645 s. Next, `Cc1cc2c(c(=O)n(-c3ccccc3)c(=O)n2CC(=O)Nc2cccc(F)c2)n1C`: 837 s; `COc1ccc(-c2nnc(-c3ccc(OC)c(S(=O)(=O)N4CCCCC4)c3)o2)cc1OC`: 922 s; `O=C(NC1CC1)c1ccc(OCC2CCCN(C(=O)c3ccsc3)C2)cc1` (configuration not stated): 737 s. On to `CCc1cccc(CC)c1NC(=O)N1Cc2[nH]nc(NC(=O)c3ccc(N4CCN(C)CC4)cc3)c2C1`, for which the RP-LC retention time was found to be 664 s. The molecule `O=C(NCc1cc(F)cc(F)c1)c1ccc(-c2cccs2)nc1` gave an RP-LC retention time of 925 s. In turn, `CCc1nn2c(CNC(=O)c3cccc(F)c3)c(-c3ccccc3)nc2s1` showed an RP-LC retention time of 909 s. In turn, `CCOC(=O)c1nc(NCc2ccc(OC)cc2)c2ccccc2n1` came in with an RP-LC retention time of 749 s. Molecule `CN1CCc2nc(C(=O)N[C@@H]3C[C@@H](C(=O)N(C)C)CC[C@@H]3NC(=O)C(=O)Nc3ccc(Cl)cn3)sc2C1` displayed an RP-LC retention time of 652 s. On to `CCN1C(=O)Cc2ccccc2C1C(=O)NCc1cccc(F)c1` (configuration not stated), for which the RP-LC retention time worked out at 744 s. On to `CC(C)C(=O)Nc1cnc(-c2cccc(Cl)c2)nc1`, for which the RP-LC retention time stood at 975 s. The molecule `CCN1C(=O)C(C)(C(=O)NCc2ccc(OC)cc2)Oc2cccnc21` (configuration not stated) registered an RP-LC retention time of 803 s. As for `O=C(COc1ccccc1F)Nc1nnc(-c2cc(Cl)sc2Cl)o1`, the RP-LC retention time stood at 867 s.

In the case of `Cc1noc([C@@H]2CN(Cc3ccc(F)cc3Cl)C[C@H]2CO)n1`, the RP-LC retention time was 600 s. As to `COc1ccc(Nc2c(-c3ccc(N(C)C)cc3)nc3cnc(Br)cn23)cc1OC`, the RP-LC retention time is 812 s.

For the molecule `CCN(CC)CCNC(=O)C1CCCN(c2ccc(-c3ccc(C)cc3)nn2)C1` (configuration not stated), the RP-LC retention time was 590 s. `N#Cc1ccc(S(=O)(=O)N2CCC(Cc3nc(-c4cccnc4)n[nH]3)C2)cc1` (configuration not stated) had an RP-LC retention time of 634 s.

The molecule `O=C(Cc1c[nH]c2ccccc12)N1CCC(c2noc(-c3ccccc3)n2)CC1` showed an RP-LC retention time of 914 s. Molecule `Cc1noc(C)c1CNC(=O)c1nccc2ccccc12` had an RP-LC retention time of 753 s. In the case of `Cc1sc(NC(=O)c2cccnc2)nc1-c1ccc2c(c1)N(C)C(=O)CO2`, the RP-LC retention time turned out to be 754 s.

In turn, `CCCc1cc(N2CCN(C(=O)c3cccs3)CC2)nc2nnc(C)n12` yielded an RP-LC retention time of 613 s. Take `Cc1cccc(CNC(=O)C2CCc3nc(N4CCOCC4)ncc3C2)c1` (configuration not stated): the RP-LC retention time stood at 723 s.

Regarding `CCc1ccc(NC(=O)Cc2nnc3cc(-c4nc(C)no4)ccn23)cc1`, the RP-LC retention time was 780 s. In the case of `O=C1COc2ccc(S(=O)(=O)N3CCC(C(=O)Nc4ccc5c(c4)OCO5)CC3)cc2N1` it was 715 s. In the case of `CCc1nc(NC(=O)Cn2nc3c(cc2=O)CCCCC3)sc1C` it was 828 s.
